Consider 11 compounds from ChEMBL document CHEMBL6109152, “Harnessing the SPOP E3 Ubiquitin Ligase via a Bridged Proteolysis Targeting Chimera (PROTAC) Strategy for Targeted Protein Degradation” (J Med Chem, 2025).

Test [1] has as its target T1, Speckle-type POZ protein-Bromodomain-containing protein 4 (Homo sapiens, UniProt O60885+O43791). The experiment in a line: PROTAC activity at SPOP/BRD4-S in human HT-29 cells assessed as induction of BRD4 short isoform degradation at 5 uM incubated for 24 hrs by Western blotting analysis relative to control. The class given is cell-based.
For test [2], the system named is HT-29. The experiment in a line: Effect on BRD4 long isoform mRNA expression level in human HT-29 cells at 5 uM incubated for 24 hrs by RT-qPCR analysis. The format is functional, cell-based. (In general: In qPCR the cycle at which signal appears reflects the starting amount.)
Test [3] deals with HT-29. Briefly: Effect on BRD4 short isoform mRNA expression level in human HT-29 cells at 5 uM incubated for 24 hrs by RT-qPCR analysis. The class given is functional, cell-based.
In test [4] the test system is HT-29. Briefly: Effect on BRD3 mRNA expression level in human HT-29 cells at 5 uM incubated for 24 hrs by RT-qPCR analysis. The class given is functional, cell-based.
Test [5] relates to HT-29. The experiment in a line: Effect on BRD2 mRNA expression level in human HT-29 cells at 5 uM incubated for 24 hrs by RT-qPCR analysis. The class given is functional, cell-based.
The subject of test [6] is HT-29. Briefly: Effect on c-MYC mRNA expression level in human HT-29 cells at 5 uM incubated for 24 hrs by RT-qPCR analysis. The format is functional, cell-based.
The test system of test [7] is HT-29. Briefly: Antiproliferative activity against human HT-29 cells assessed as reduction in cell growth up to 10 uM incubated for 3 days by WST-8 reagent based assay. The following applies: time 3.0 day. The format is functional. Background: Tetrazolium assays rely on reduction of a dye to a coloured formazan, in cell work by metabolically active cells.
Test [8] addresses T1, Speckle-type POZ protein-Bromodomain-containing protein 4. Briefly: PROTAC activity at SPOP/BRD4-L in human HT-29 cells assessed as induction of BRD4 long isoform degradation at 0.5 to 5 uM incubated for 24 hrs by Western blotting analysis. The class given is cell-based. The following applies: dose 0.5-5 µM. (A western blot detects proteins with antibodies after separation by electrophoresis.)

Test [9] has the same target. Briefly: PROTAC activity at SPOP/BRD4-S in human HT-29 cells assessed as induction of BRD4 short isoform degradation at 0.5 to 5 uM incubated for 24 hrs by Western blotting analysis. The class given is cell-based. The following applies: dose 0.5-5 µM.
Test [10] relates to HT-29. Briefly: Binding affinity to BRD4-S/GLP/SPOP in human HT-29 cells assessed as compound-BRD4-GLP-SPOP quaternary complex formation at 20 to 100 uM incubated for 1 hrs by pulldown based Western blot analysis. The format is cell-based. The settings on record: dose 20-100 µM.
Test [11] concerns HEK293T. The experiment in a line: Binding affinity to BRD4-S/GLP/SPOP in HEK293T cells assessed as compound-BRD4-GLP-SPOP quaternary complex formation at 20 to 100 uM incubated for 1 hrs by pulldown based Western blot analysis. The format is cell-based. The settings on record: Homo sapiens, dose 20-100 µM.

Activity calls are given as the source filed them. The rule behind the calls is not given here.

T1 sequence (O43791 whole entry, looked up, other chains not shown, canonical isoform): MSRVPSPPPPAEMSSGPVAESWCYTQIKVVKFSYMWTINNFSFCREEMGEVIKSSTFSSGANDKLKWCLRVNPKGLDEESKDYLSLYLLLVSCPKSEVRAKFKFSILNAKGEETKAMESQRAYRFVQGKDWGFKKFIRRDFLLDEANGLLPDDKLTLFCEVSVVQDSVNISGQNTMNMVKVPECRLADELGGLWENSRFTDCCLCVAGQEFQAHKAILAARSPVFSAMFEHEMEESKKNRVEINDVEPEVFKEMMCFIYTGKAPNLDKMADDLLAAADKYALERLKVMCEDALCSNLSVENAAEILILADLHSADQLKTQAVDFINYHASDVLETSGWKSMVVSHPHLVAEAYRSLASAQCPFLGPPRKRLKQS

As to `COc1cc2c(NC3CCN(CCCC(=O)NCCCCCCCCCCNC(=O)C[C@H]4N=C(c5ccc(Cl)cc5)c5c(sc(C)c5C)-n5c(C)nnc54)CC3)cc(N3CCOCC3)nc2cc1OCCCN1CCCC1`, the outcome in [1], in test [2], in [3], in test [4], in [5] and in test [6] was inactive. Moreover, the outcome in test [7] was inactive.

Turning to `COc1cc2c(NC3CCN(CCCC(=O)NCCCCCCCCCNC(=O)C[C@@H]4N=C(c5ccc(Cl)cc5)c5c(sc(C)c5C)-n5c(C)nnc54)CC3)cc(N3CCOCC3)nc2cc1OCCCN1CCCC1`, the outcome in [8] was inactive. In addition, the result in [9] was Active.

As for `COc1cc2c(NC3CCN(CCCC(=O)NCCCCCCNC(=O)C[C@@H]4N=C(c5ccc(Cl)cc5)c5c(sc(C)c5C)-n5c(C)nnc54)CC3)cc(N3CCOCC3)nc2cc1OCCCN1CCCC1`, the outcome in test [8] and in test [9] was inactive.

Take `COc1cc2c(NC3CCN(CCCC(=O)NCCCNC(=O)C[C@@H]4N=C(c5ccc(Cl)cc5)c5c(sc(C)c5C)-n5c(C)nnc54)CC3)cc(N3CCOCC3)nc2cc1OCCCN1CCCC1`: the result in test [8] and in test [9] was inactive.

With `COc1cc2c(NC3CCN(CCCC(=O)NCCCCCCCCCCNC(=O)C[C@@H]4N=C(c5ccc(NC(=O)CCOCCOCCOCCOCCOCCOCCNC(=O)CCCC[C@@H]6SC[C@@H]7NC(=O)N[C@@H]76)cc5)c5c(sc(C)c5C)-n5c(C)nnc54)CC3)cc(N3CCOCC3)nc2cc1OCCCN1CCCC1`, the outcome in test [10] and in test [11] was Active.

On to `COc1cc2c(NC3CCN(CCCC(=O)NCCCCNC(=O)C[C@@H]4N=C(c5ccc(Cl)cc5)c5c(sc(C)c5C)-n5c(C)nnc54)CC3)cc(N3CCOCC3)nc2cc1OCCCN1CCCC1`, for which the outcome in test [8] and in [9] was inactive.

As to `COc1cc2c(NC3CCN(CCCC(=O)NCCCCCCCNC(=O)C[C@@H]4N=C(c5ccc(Cl)cc5)c5c(sc(C)c5C)-n5c(C)nnc54)CC3)cc(N3CCOCC3)nc2cc1OCCCN1CCCC1`, the result in test [8] and in test [9] was inactive.

In the case of `COc1cc2c(NC3CCN(CCCC(=O)NCCCCCNC(=O)C[C@@H]4N=C(c5ccc(Cl)cc5)c5c(sc(C)c5C)-n5c(C)nnc54)CC3)cc(N3CCOCC3)nc2cc1OCCCN1CCCC1`, the outcome in test [8] and in [9] was inactive.

On to `COc1cc2c(N(C)C3CCN(CCCC(=O)NCCCCCCCCCCNC(=O)C[C@@H]4N=C(c5ccc(Cl)cc5)c5c(sc(C)c5C)-n5c(C)nnc54)CC3)cc(N3CCOCC3)nc2cc1OCCCN1CCCC1`, for which the outcome in test [1], in test [2], in test [3], in test [4], in [5] and in test [6] was inactive. For the same compound, the result in test [7] was inactive.

With `COc1cc2c(NC3CCN(CCCC(=O)NCCNC(=O)C[C@@H]4N=C(c5ccc(Cl)cc5)c5c(sc(C)c5C)-n5c(C)nnc54)CC3)cc(N3CCOCC3)nc2cc1OCCCN1CCCC1`, the result in test [8] and in test [9] was inactive.

For `COc1cc2c(NC3CCN(CCCC(=O)NCCCCCCCCNC(=O)C[C@@H]4N=C(c5ccc(Cl)cc5)c5c(sc(C)c5C)-n5c(C)nnc54)CC3)cc(N3CCOCC3)nc2cc1OCCCN1CCCC1`, the outcome in test [8] was inactive. In test [9], the outcome was Active.
